One assay concerns the target O-acyltransferase (Oryctolagus cuniculus, UniProt G1SFD9). The assay is described as follows: In vitro Acyl coenzyme A:cholesterol acyltransferase inhibitory activity (IAI) was determined by measuring the incorporation of [1-14C]oleolyl-CoA into cholesterol esters by intestinal microsomes isolated from cholesterol-fed rabbits. Set-up: species or system Intestine.
The test system of a further assay is Rattus norvegicus. The assay is described as follows: In vivo hypocholesterolemic activity was measured in an acute, cholesterol-fed rat model (APCC) at 30 mg/kg dose. Type of assay: functional.

30 compounds from ChEMBL document CHEMBL1127594, “Inhibitors of acyl-CoA:cholesterol O-acyltransferase. 11. Structure-activity relationships of several series of compounds derived from N-(chlorocarbonyl) isocyanate” (J Med Chem, 1994) can be followed below.

Sequence of O-acyltransferase (G1SFD9 1-524): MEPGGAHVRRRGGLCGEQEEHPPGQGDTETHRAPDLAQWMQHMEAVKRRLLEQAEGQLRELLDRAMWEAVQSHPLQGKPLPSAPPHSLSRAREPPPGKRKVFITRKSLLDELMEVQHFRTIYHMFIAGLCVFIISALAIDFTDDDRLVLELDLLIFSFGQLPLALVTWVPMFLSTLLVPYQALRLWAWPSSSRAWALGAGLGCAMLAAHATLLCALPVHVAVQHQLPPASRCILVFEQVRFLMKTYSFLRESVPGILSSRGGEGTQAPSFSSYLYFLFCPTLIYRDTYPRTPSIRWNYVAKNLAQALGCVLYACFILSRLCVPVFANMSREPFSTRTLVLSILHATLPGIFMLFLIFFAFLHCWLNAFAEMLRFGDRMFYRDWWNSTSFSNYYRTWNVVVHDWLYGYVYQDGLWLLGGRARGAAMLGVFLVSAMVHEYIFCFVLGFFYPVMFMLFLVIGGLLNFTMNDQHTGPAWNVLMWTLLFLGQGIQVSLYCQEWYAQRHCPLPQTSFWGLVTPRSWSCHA

As usually defined, the IC50 is the midpoint of a concentration-inhibition curve. A lower IC50 goes with greater potency in that assay. In the case of `CCCCCCCCCCC(C)(C)COC(=O)NC(=O)Oc1c(C(C)C)cccc1C(C)C`, inhibition on O-acyltransferase was half-maximal at 20 nM (IC50). For the same compound, in the assay on Rattus norvegicus, the “Delta TC” value was <-72%.
Regarding `CC(C)c1cccc(C(C)C)c1OC(=O)NC(=O)SCCCc1ccccc1`, the midpoint of inhibition against O-acyltransferase, the IC50, lay at 69 nM. Besides, the “Delta TC” value in the assay with Rattus norvegicus is on record as <-63%.
As to `CCCCCCCCCCCCC(C)(C)OC(=O)NC(=O)Oc1c(C(C)C)cccc1C(C)C`, the midpoint of inhibition at O-acyltransferase, the IC50, lay at 21 nM. Also, the “Delta TC” value with Rattus norvegicus is given as <-51%.
On O-acyltransferase, `CCCCCCCCCCCCCCC(C)OC(=O)NC(=O)Oc1c(C(C)C)cccc1C(C)C` (racemic) displayed an IC50 of 58 nM. Further, the “Delta TC” value in the assay on Rattus norvegicus is on record as <-43%.
As to `CCCCCCCCCCCCCCC(C)OC(=O)NC(=O)Nc1c(C(C)C)cccc1C(C)C` (stereo not drawn), on O-acyltransferase, the IC50 worked out at 6800 nM. Moreover, in the assay on Rattus norvegicus, the “Delta TC” value was <-26%.
With `CC(C)c1cccc(C(C)C)c1OC(=O)NC(=O)SCc1ccc(Cl)cc1`, 160 nM corresponded to half-maximal inhibition on O-acyltransferase (IC50). Besides, the “Delta TC” value in the assay with Rattus norvegicus is on record as <-50%.
For `CC(C)c1cccc(C(C)C)c1OC(=O)NC(=O)SCc1ccco1`, half-maximal inhibition on O-acyltransferase (IC50) was put at 470 nM. In addition, the “Delta TC” value in the assay on Rattus norvegicus is listed as <-51%.
Turning to `Cc1cccc(C)c1SC(=O)NC(=O)Sc1c(C)cccc1C`, the IC50 against O-acyltransferase was > 5000 nM. In addition, in the assay on Rattus norvegicus, the “Delta TC” value was -13%.
Take `CCCCCCCCSC(=O)NC(=O)Oc1c(C(C)C)cccc1C(C)C`: the IC50 on O-acyltransferase came out at 160 nM. For the same compound, the “Delta TC” value in the assay with Rattus norvegicus was <-63%.
`CCCCCCCCCCCCC(C)SC(=O)NC(=O)Oc1c(C(C)C)cccc1C(C)C` (racemic) had an IC50 at O-acyltransferase of 8 nM. Also, in the assay with Rattus norvegicus, the “Delta TC” value was <-60%.
Consider `CCCCCCCC(C)OC(=O)NC(=O)Nc1c(C(C)C)cccc1C(C)C` (stereo not drawn), for which the IC50 against O-acyltransferase was determined as 390 nM. In addition, the “Delta TC” value in the assay with Rattus norvegicus was <-24%.
Taken in the same sequence, the figures for `CCCCN(CCCC)C(=O)NC(=O)Nc1c(C(C)C)cccc1C(C)C` were 250 nM and <-30%.
With `CCCCCCCCCCCCOC(=O)NC(=O)Nc1c(C(C)C)cccc1C(C)C`, on O-acyltransferase, the IC50 was found to be 120 nM. The “Delta TC” value with Rattus norvegicus is <-38%.
Compound `CCCCCCCCCCCCSC(=O)NC(=O)Oc1c(OC)cc(OC)cc1OC` yielded a half-maximal inhibitory concentration (IC50) on O-acyltransferase of 250 nM. In the assay with Rattus norvegicus, the “Delta TC” value is reported as <-59%.
`CCCCCCCCCCCCCCN(C)C(=O)NC(=O)Nc1c(C(C)C)cccc1C(C)C` gave an IC50 against O-acyltransferase of 1700 nM.
The compound `CC(C)c1cccc(C(C)C)c1OC(=O)NC(=O)Oc1cccc2ccccc12` registered an IC50 at O-acyltransferase of 3700 nM.
At O-acyltransferase, `CCCCCCCCC(C)OC(=O)NC(=O)Oc1c(C(C)C)cccc1C(C)C` (racemic) yielded an IC50 of 270 nM. Moreover, the “Delta TC” value in the assay with Rattus norvegicus is <-54%.
For `CCCCCCCCCCCCC(C)OC(=O)NC(=O)Oc1c(F)cccc1F` (racemic), in that order: > 1000 nM and <-35%.
For `CCN(CC)C(=O)NC(=O)Nc1c(C(C)C)cccc1C(C)C`, the “Delta TC” value with Rattus norvegicus is -16%.
As for `CCCCCCCCCCCCSC(=O)NC(=O)Oc1c(C(C)C)cccc1C(C)C`, the half-maximal inhibitory concentration (IC50) on O-acyltransferase was 16 nM. For the same compound, in the assay with Rattus norvegicus, the “Delta TC” value is given as <-63%.
In the case of `CC(C)c1cccc(C(C)C)c1NC(=O)NC(=O)N1CCCC1`, the “Delta TC” value in the assay with Rattus norvegicus is reported as -7%.
On O-acyltransferase, `CC(C)c1cccc(C(C)C)c1NC(=O)NC(=O)N1c2ccccc2Sc2ccccc21` registered an IC50 of 1900 nM. Besides, in the assay on Rattus norvegicus, the “Delta TC” value is -6%.
On to `CCCCCCCCCCC(C)OC(=O)NC(=O)Nc1c(C(C)C)cccc1C(C)C` (stereo not drawn), for which the “Delta TC” value in the assay with Rattus norvegicus is given as <-26%.
With `CCCCCCCCCCCCCCCCOC(=O)NC(=O)Oc1c(C(C)C)cccc1C(C)C`, the “Delta TC” value in the assay on Rattus norvegicus is <-70%.
`CC(C)c1cccc(C(C)C)c1NC(=O)NC(=O)Nc1c(C(C)C)cccc1C(C)C`: the “Delta TC” value in the assay with Rattus norvegicus came out at 0%.
`CCCCCCCCCCCCC(C)(C)OC(=O)NC(=O)Nc1c(C(C)C)cccc1C(C)C` came in with a half-inhibitory concentration (IC50) against O-acyltransferase of 65 nM.
As for `CC(C)c1cccc(C(C)C)c1NC(=O)N(C)C(=O)N(c1ccccc1)c1ccccc1`, at O-acyltransferase, the IC50 came to 440 nM.
On to `CC(C)c1cccc(C(C)C)c1NC(=O)NC(=O)NC(c1ccccc1)c1ccccc1`, for which the “Delta TC” value in the assay on Rattus norvegicus is recorded as 4%.
Take `CC(C)c1cccc(C(C)C)c1OC(=O)NC(=O)NC(c1ccccc1)c1ccccc1`: in the assay on Rattus norvegicus, the “Delta TC” value is on record as -4%.
Take `CCCCCCCCCCCCOC(=O)NC(=O)Sc1c(C(C)C)cccc1C(C)C`: the “Delta TC” value in the assay with Rattus norvegicus is -4%.
